According to ChEMBL document CHEMBL1201862, “PubChem BioAssay data set” (2004):
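Dose response: 5 concentrations. Exposure: 48 h. Format: 96-well plates. Endpoint: linear interpolation; highest concentration if not reached. GI50 is the concentration that inhibits growth by half.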 Activity calls are given as the source filed them. No stated cut-off is given here; in the data, active = GI50 up to about 1.1 µM and inactive = higher.

What was measured:
Experiment in all cases: NCI-60 cell line screen, 48 h
OVCAR-4 = test system: OVCAR-4
U-251 = test system: U-251
SF-539 = test system: SF-539
EKVX = test system: EKVX
NCI/ADR-RES = test system: NCI/ADR-RES
SNB-75 = test system: SNB-75
UO-31 = test system: UO-31
SR = test system: SR
SNB-19 = test system: SNB-19
OVCAR-5 = test system: OVCAR-5
LOX IMVI = test system: LOX IMVI
HCC 2998 = test system: HCC 2998
HCT-116 = test system: HCT-116
SK-MEL-5 = test system: SK-MEL-5
RXF 393 = test system: RXF 393
NCI-H226 = test system: NCI-H226
CCRF-CEM = test system: CCRF-CEM
RPMI-8226 = test system: RPMI-8226

Measured: GI50

CN(C)c1ccc(/C=N/c2ccc(-c3nc4ccccc4o3)cc2)cc1
inactive: OVCAR-4 33.5 µM | U-251 31.7 µM | SF-539 40.8 µM | EKVX 28.6 µM | NCI/ADR-RES 33.5 µM | SNB-75 54.7 µM | UO-31 48.8 µM | SR 36 µM | SNB-19 > 100 µM | OVCAR-5 > 100 µM | LOX IMVI 35.2 µM | HCC 2998 14.7 µM | HCT-116 53.7 µM | SK-MEL-5 13 µM

CN(CCCNC(=O)c1cn(C)c2c1ccc1ccccc12)CCCNC(=O)c1cn(C)c2c1ccc1ccccc12
inactive: OVCAR-4 9.35 µM | U-251 2.4 µM | EKVX 1.7 µM | NCI/ADR-RES 1.77 µM | UO-31 1.44 µM | SNB-19 2.33 µM | LOX IMVI 1.82 µM | RXF 393 1.65 µM | NCI-H226 1.66 µM | HCC 2998 1.41 µM | HCT-116 1.49 µM | SK-MEL-5 1.65 µM | CCRF-CEM 2.26 µM

C=C(C)C(=O)CC[C@@H](C)[C@H]1[C@@H](OC2OC(CO)C(O)C(O)C2O)C[C@@]2(C)[C@@H]3C[C@H](O)C4C(C)(C)[C@@H](OC5OC(CO)C(O)C(O)C5O)CC[C@@]45C[C@@]35CC[C@]12C (stereo not given in full)
inactive: OVCAR-4 > 100 µM | U-251 > 100 µM | SF-539 89.9 µM | EKVX > 100 µM | NCI/ADR-RES > 100 µM | SNB-75 > 100 µM | UO-31 > 100 µM | SR 71.1 µM | SNB-19 48.8 µM | OVCAR-5 > 100 µM | LOX IMVI > 100 µM | RPMI-8226 > 100 µM | HCC 2998 47 µM | HCT-116 > 100 µM | SK-MEL-5 46.6 µM | CCRF-CEM 64.9 µM

ClCCN1CCOC1=C1C=CC=C1
inactive: U-251 > 100 µM | SF-539 > 100 µM | EKVX > 100 µM | NCI/ADR-RES > 100 µM | SNB-75 > 100 µM | UO-31 > 100 µM | SR 19.3 µM | SNB-19 > 100 µM | OVCAR-5 > 100 µM | LOX IMVI > 100 µM | NCI-H226 > 100 µM | RPMI-8226 > 100 µM | HCT-116 > 100 µM | SK-MEL-5 > 100 µM | CCRF-CEM 80.4 µM

CCOC(=O)c1cc(-c2ccc(OC)cc2)c([N+](=O)[O-])[nH]1
inactive: OVCAR-4 > 10 µM | U-251 > 10 µM | SF-539 > 10 µM | EKVX > 10 µM | SNB-75 > 10 µM | UO-31 > 10 µM | SR > 10 µM | SNB-19 > 10 µM | OVCAR-5 > 10 µM | RXF 393 > 10 µM | NCI-H226 > 9.08 µM | HCC 2998 > 10 µM | HCT-116 > 10 µM | SK-MEL-5 7.67 µM | CCRF-CEM > 10 µM

Nc1nc2ncc(SCc3ccc(C(=O)NC(CCC(=O)O)C(=O)O)cc3)cc2c(=O)[nH]1 (stereo not given)
inactive: OVCAR-4 > 100 µM | U-251 > 100 µM | SF-539 > 100 µM | EKVX > 100 µM | NCI/ADR-RES > 100 µM | UO-31 > 100 µM | SR > 100 µM | SNB-19 > 100 µM | OVCAR-5 > 100 µM | LOX IMVI > 100 µM | NCI-H226 > 100 µM | RPMI-8226 19.4 µM | HCC 2998 > 100 µM | HCT-116 > 100 µM | SK-MEL-5 > 100 µM

O=C(OCc1ccccc1)N1CCN(C(=O)OCc2ccccc2)CCN(C(=O)OCc2ccccc2)CCN(C(=O)OCc2ccccc2)CCN(C(=O)OCc2ccccc2)CC1
inactive: OVCAR-4 57.4 µM | U-251 76.7 µM | SF-539 28.3 µM | EKVX > 100 µM | NCI/ADR-RES 79.4 µM | SNB-75 30.9 µM | UO-31 22.8 µM | SNB-19 > 100 µM | OVCAR-5 > 100 µM | LOX IMVI 80 µM | NCI-H226 > 100 µM | HCC 2998 > 100 µM | HCT-116 > 100 µM | SK-MEL-5 18.4 µM

CC1(C)C2CCC1(C)C(NC(=O)COCCOCC(N)=O)C2 (stereo not given)
inactive: OVCAR-4 > 100 µM | U-251 > 100 µM | SF-539 > 100 µM | EKVX > 100 µM | SNB-75 > 100 µM | UO-31 > 100 µM | SR 31.1 µM | SNB-19 > 100 µM | OVCAR-5 > 100 µM | RXF 393 63.7 µM | NCI-H226 > 100 µM | HCC 2998 45 µM | HCT-116 > 100 µM | SK-MEL-5 > 100 µM | CCRF-CEM > 100 µM

O=C(Nc1cnc(O)nc1O)C(Cl)Cl
inactive: OVCAR-4 > 100 µM | U-251 > 100 µM | SF-539 > 100 µM | EKVX > 100 µM | NCI/ADR-RES > 100 µM | SNB-75 > 100 µM | UO-31 > 100 µM | SNB-19 > 100 µM | LOX IMVI > 100 µM | RXF 393 > 100 µM | NCI-H226 > 100 µM | RPMI-8226 > 100 µM | HCC 2998 > 100 µM | HCT-116 > 100 µM | SK-MEL-5 > 100 µM | CCRF-CEM > 100 µM

COC(=O)/C=C1\CCC(C)(C(=O)NS(=O)(=O)c2ccc(C)cc2)C1(C)C (stereo not given)
inactive: OVCAR-4 > 100 µM | U-251 > 100 µM | SF-539 > 100 µM | EKVX > 100 µM | NCI/ADR-RES > 100 µM | UO-31 > 100 µM | SNB-19 > 100 µM | OVCAR-5 > 100 µM | LOX IMVI > 100 µM | RXF 393 > 100 µM | NCI-H226 > 100 µM | RPMI-8226 > 100 µM | HCC 2998 > 100 µM | HCT-116 > 100 µM | SK-MEL-5 > 100 µM | CCRF-CEM > 100 µM

O=S(=O)(O)c1cc(S(=O)(=O)O)c2c(Nc3ccnc4ccccc34)ccc(S(=O)(=O)O)c2c1
inactive: OVCAR-4 > 100 µM | U-251 > 100 µM | SF-539 > 100 µM | EKVX > 100 µM | NCI/ADR-RES > 100 µM | SNB-75 > 100 µM | UO-31 > 100 µM | SNB-19 > 100 µM | OVCAR-5 > 100 µM | LOX IMVI > 100 µM | RXF 393 > 100 µM | NCI-H226 > 100 µM | RPMI-8226 > 100 µM | HCC 2998 > 100 µM | HCT-116 > 100 µM | SK-MEL-5 > 100 µM | CCRF-CEM > 100 µM

O=C(c1cccs1)N1CCCN(C(=O)c2cccs2)C1=S
inactive: U-251 > 100 µM | SF-539 > 100 µM | EKVX 52.2 µM | NCI/ADR-RES > 100 µM | UO-31 > 100 µM | SNB-19 > 100 µM | OVCAR-5 > 100 µM | LOX IMVI > 100 µM | RXF 393 36.1 µM | NCI-H226 > 100 µM | RPMI-8226 > 100 µM | HCT-116 > 100 µM | SK-MEL-5 > 100 µM | CCRF-CEM > 100 µM

CNc1nc(OC)c2c(n1)n(C)c[n+]2C [HETEROMINE B]
inactive: U-251 45.7 µM | SF-539 > 100 µM | EKVX > 100 µM | NCI/ADR-RES > 100 µM | SNB-75 > 100 µM | UO-31 > 100 µM | SNB-19 > 100 µM | OVCAR-5 > 100 µM | LOX IMVI > 100 µM | RXF 393 > 100 µM | NCI-H226 > 100 µM | RPMI-8226 > 100 µM | HCT-116 > 100 µM | SK-MEL-5 > 100 µM | CCRF-CEM > 100 µM
